Test results: US5382430A, “Method for the stimulation of the immune system of an animal by use of limulus test-positive plant glycolipid” (priority 1989, dated 1995)

B1: parathyroid hormone (protein, UniProt P01270 32-115, looked up)
Parathyroid hormone: SVSEIQLMHNLGKHLNSMERVEWLRKKLQDVHNFVALGAPLAPRDAGSQRPRKKEDNVLVESHEKSLGEADKADVNVLTKAKSQ
notes: Already known parathyroid hormone which is a bony tissue absorbance hormone

Columns and labels:
TNF = settings: prior art statement; cited from earlier work
[1] = system: parietal bones of fowl's embryo; assay: Osteogenesis stimulation: osteoclast activation test, 45Ca leakage (Table 9); settings: 1 unit/ml
Description: Stimulation of Osteogenesis
This stimulation was confirmed by an osteolast activation test.
Osteoclast cells are those in charge of absorbing bony tissue which destroy old bones in said tissue. […] As a result, the osteogenesis is presumed to be stimulated.
In the osteoclast activation test, parietal bones of fowl's embryo are used as experimental samples. That is, the parietal bones of fowl's embryo are labelled with ^45 Ca, and are cultured in a medium containing a medicine candidate (treated group) or in a said candidate-free medium (control group), and thereafter the quantity of the ^45 Ca remaining in the bones and that of the ^45 Ca leaked into the medium during culture are determined. The ^45 Ca leakage rates in both tile treated and control groups are calculated according to the following equation:
^45 Ca leakage rate=(Quantity of ^45 Ca leaked)/(Quantity of
remaining ^45 Ca+Quantity of ^45 Ca leaked)
The effect of the candidate is expressed by the following T/C rate:
T/C rate=(Quantity of ^45 Ca leaked in the treated group)/(Quantity of
^45 Ca leaked in the control group) […]
4) The medium (each, 250 μl) was added to 4.5 ml of ACSII scintillator (Amersham Co. In U.K.), and the counting was made on the basis of liquid scintillation to determine the quantity of the 45Ca leaked into the medium. […]

| Molecule | TNF productivity (TNF) | 45Ca leakage, Treated T [1] | T/C rate [1] |
| --- | --- | --- | --- |
| CC(C)C[C@H](NC(=O)[C@@H](O)[C@H](N)Cc1ccccc1)C(=O)O [Bestatin, ubenimex] | no TNF productivity | – | – |
| sizofiran [Sonifilan] | no TNF productivity | – | – |
| polysaccharide K [PSK] | no TNF productivity | – | – |
| lentinan | no TNF productivity | – | – |
| B1 | – | 4.46 | 1.22 |
